These results are taken from patent US6451835B1, “Pesticidal fluoroethyl pyrazole derivatives” (Uniroyal Chemical Company, Inc., priority 2001, dated 2002).

Each structure is given as a SMILES string.

The first experiment deals with Helicoverpa virescens larva. The experiment in a line: Tobacco budworm test (TB). It is filed as in vivo. The note with it: 0.2 mL of 1000 ppm stock solution on diet cell surface; second instar larva; after 14 days; corrected by Abbott's formula. The protocol:
(§1) Stock solutions of each of the compounds were prepared at 1000 ppm by dissolving 0.08 gram of each compound to be tested in 8 mL of acetone and adding 72 mL of distilled water plus 3 drops of ethoxylated sorbitan monolaurate, a wetting agent. […] For each example that follows, these stock solutions were used and the specified dilutions made. All the tests discussed below, which involved treatment with compounds of this invention, were always repeated with controls to permit a comparison upon which the percent control was calculated.
For each compound tested, 0.2 mL of each stock solution of Example 2 was pipetted onto the surfaces of each of five diet cells, allowed to spread over the surfaces, and air dried for two hours. Then, a second instar Helicoverpa virescens larva was introduced into each cell. After 14 days, the number of living larvae was determined for each treatment and percent control, corrected by Abbott's formula (J. Econ. Entomology (1925, 265-267), was calculated. The results of the testing of tobacco budworms (TB) are presented in Table 2.
In the case of `FCCC1(c2ccccc2)C=NNC1` (stereo not drawn) [Compound 1, 4-(2-fluoroethyl)-4-phenyl-1H-pyrazole], the “Percent Control TB” value is listed as 20%.

Turning to `FCCn1cc(-c2ccc(OC(F)(F)F)cc2)cn1` [Compound 7], the “Percent Control TB” value is 0%.

With `FCCn1cc(-c2ccc(C(F)(F)F)cc2)cn1` [Compound 3], the “Percent Control TB” value is 100%.

Consider `FCCn1cc(-c2cccc(C(F)(F)F)c2)cn1` [Compound 6], for which the “Percent Control TB” value is given as 0%.

With `FCCn1cc(-c2ccc(Cl)cc2)cn1` [Compound 2], the “Percent Control TB” value came to 40%.

Consider `FCCn1cc(-c2ccc(Cl)c(Cl)c2)cn1` [Compound 5], for which the “Percent Control TB” value came to 0%.

For the molecule `FCCn1cc(-c2cccc(Br)c2)cn1` [Compound 4], the “Percent Control TB” value stood at 7%.

For another experiment, the system named is Tefranychus urticae Koch. The experiment is described as follows: Mite adulticide test (MI). The note with it: 1000 ppm spray to run off on cowpea leaves; adult mites added 1 day after treatment, read five days later. The experiment is classed as in vivo. As to the method:
(§2) Stock solutions of each of the compounds were prepared at 1000 ppm by dissolving 0.08 gram of each compound to be tested in 8 mL of acetone and adding 72 mL of distilled water plus 3 drops of ethoxylated sorbitan monolaurate, a wetting agent. […] For each example that follows, these stock solutions were used and the specified dilutions made. All the tests discussed below, which involved treatment with compounds of this invention, were always repeated with controls to permit a comparison upon which the percent control was calculated. One day before treatment of cowpea primary leaves with the test solutions, a “FIG. 8” configuration of tree tanglefoot was applied to each of two cowpea primary leaves, one from each of two plants in a pot. In each “Figure”, the circle nearer the stem was designated for the mite ovicide test and the circle farther from the stem was designated for the mite adulticide test. Groups of adult mites (Tefranychus urticae Koch) were transferred into ovicide circles one day before treatment and the females were allowed to deposit eggs until one hour before treatment, at which point all the adults were removed. The plants were then sprayed to run off with each 1000 ppm stock solution of Example 2. One day following treatment of the plants with the test solution, groups of approximately 25 adult mites were transferred into the adulticide rings. Five days later, these rings were examined for live mites remaining on the leaves. The percent control was estimated based on the number of mites surviving on the control plants. Nine days following treatment the ovicide rings were examined for unhatched eggs and living immature mites. The percent control was estimated based on the number of unhatched eggs.
Take `FCCC1(c2ccccc2)C=NNC1` (stereo not drawn) [Compound 1, 4-(2-fluoroethyl)-4-phenyl-1H-pyrazole]: the “Percent Control MI” value turned out to be 0%.

For the molecule `FCCn1cc(-c2ccc(OC(F)(F)F)cc2)cn1` [Compound 7], the “Percent Control MI” value stood at 0%.

On to `FCCn1cc(-c2ccc(C(F)(F)F)cc2)cn1` [Compound 3], for which the “Percent Control MI” value amounted to 0%.

For the molecule `FCCn1cc(-c2cccc(C(F)(F)F)c2)cn1` [Compound 6], the “Percent Control MI” value was 0%.

`FCCn1cc(-c2ccc(Cl)cc2)cn1` [Compound 2]: the “Percent Control MI” value was 100%.

`FCCn1cc(-c2ccc(Cl)c(Cl)c2)cn1` [Compound 5]: the “Percent Control MI” value stood at 100%.

For `FCCn1cc(-c2cccc(Br)c2)cn1` [Compound 4], the “Percent Control MI” value was 100%.

The test system of another experiment is rice delphacids, Sogatodes orizicola. The experiment in a line: Rice planthopper foliar test (RPH). Particulars: 1000 ppm spray on rice seedlings; adults added 1 day after treatment, counted five days after transferring. It is filed as in vivo. The protocol:
as §1
One thousand ppm of each stock solution of Example 2 was used for this test. One pot containing approximately 20 rice seedlings was treated with each formulation by spraying with a spray atomizer. One day after treatment, plants were covered with a tubular cage and 20 adult rice delphacids, Sogatodes orizicola, were transferred into each cage. Five days after transferring, counts were made of the surviving planthoppers in each pot and percent control was estimated.
For the molecule `FCCC1(c2ccccc2)C=NNC1` (stereo not drawn) [Compound 1, 4-(2-fluoroethyl)-4-phenyl-1H-pyrazole], the “Percent Control RPH” value was found to be 20%.

For `FCCn1cc(-c2ccc(OC(F)(F)F)cc2)cn1` [Compound 7], the “Percent Control RPH” value is reported as 85%.

On to `FCCn1cc(-c2ccc(C(F)(F)F)cc2)cn1` [Compound 3], for which the “Percent Control RPH” value is 0%.

Turning to `FCCn1cc(-c2cccc(C(F)(F)F)c2)cn1` [Compound 6], the “Percent Control RPH” value turned out to be 85%.

Turning to `FCCn1cc(-c2ccc(Cl)cc2)cn1` [Compound 2], the “Percent Control RPH” value came out at 0%.

Regarding `FCCn1cc(-c2ccc(Cl)c(Cl)c2)cn1` [Compound 5], the “Percent Control RPH” value was 0%.

Consider `FCCn1cc(-c2cccc(Br)c2)cn1` [Compound 4], for which the “Percent Control RPH” value came to 0%.

The next experiment relates to root knot nematode (Meloidogmne incognita). The experiment is described as follows: Nematode test (NE). The experiment is classed as in vivo. Particulars: soil drench, soil concentration of 50 ppm; tomato seedling roots evaluated for galls nineteen days after planting. The protocol: Stock solutions of each of the compounds were prepared at 1000 ppm by dissolving 0.08 gram of each compound to be tested in 8 mL of acetone and adding 72 mL of distilled water plus 3 drops of ethoxylated sorbitan monolaurate, a wetting agent. […] For each example that follows, these stock solutions were used and the specified dilutions made. All the tests discussed below, which involved treatment with compounds of this invention, were always repeated with controls to permit a comparison upon which the percent control was calculated. One thousand ppm of each stock solution of Example 2 was used for this test. For each test solution, 25 mL was drenched onto separate 500 gram samples of soil infested with root knot nematode (Meloidogmne incognita) eggs in a pot, for a soil concentration of 50 ppm. One day after treatment, two tomato seedlings were planted in each pot. Nineteen days after planting, the roots were evaluated for the presence of knots or galls, and the percent control was estimated on the infestation levels in check plants.
Turning to `FCCC1(c2ccccc2)C=NNC1` (stereo not drawn) [Compound 1, 4-(2-fluoroethyl)-4-phenyl-1H-pyrazole], the “Percent Control NE” value came to 50%.

As for `FCCn1cc(-c2ccc(OC(F)(F)F)cc2)cn1` [Compound 7], the “Percent Control NE” value turned out to be 100%.

For the molecule `FCCn1cc(-c2ccc(C(F)(F)F)cc2)cn1` [Compound 3], the “Percent Control NE” value is 0%.

Take `FCCn1cc(-c2cccc(C(F)(F)F)c2)cn1` [Compound 6]: the “Percent Control NE” value came to 100%.

On to `FCCn1cc(-c2ccc(Cl)cc2)cn1` [Compound 2], for which the “Percent Control NE” value was determined as 100%.

Take `FCCn1cc(-c2ccc(Cl)c(Cl)c2)cn1` [Compound 5]: the “Percent Control NE” value is on record as 60%.

As for `FCCn1cc(-c2cccc(Br)c2)cn1` [Compound 4], the “Percent Control NE” value was found to be 100%.

Another experiment deals with Tefranychus urticae Koch eggs. The experiment is described as follows: Mite ovicide test (MIOV). It is filed as in vivo. Particulars: 1000 ppm spray to run off on cowpea leaves; unhatched eggs read nine days following treatment. The protocol: as §2
In the case of `FCCC1(c2ccccc2)C=NNC1` (stereo not drawn) [Compound 1, 4-(2-fluoroethyl)-4-phenyl-1H-pyrazole], the “Percent Control MIOV” value is given as 100%.

With `FCCn1cc(-c2ccc(OC(F)(F)F)cc2)cn1` [Compound 7], the “Percent Control MIOV” value stood at 100%.

For the molecule `FCCn1cc(-c2ccc(C(F)(F)F)cc2)cn1` [Compound 3], the “Percent Control MIOV” value is listed as 0%.

Consider `FCCn1cc(-c2cccc(C(F)(F)F)c2)cn1` [Compound 6], for which the “Percent Control MIOV” value was 100%.

As to `FCCn1cc(-c2ccc(Cl)cc2)cn1` [Compound 2], the “Percent Control MIOV” value amounted to 100%.

Turning to `FCCn1cc(-c2ccc(Cl)c(Cl)c2)cn1` [Compound 5], the “Percent Control MIOV” value is on record as 100%.

For the molecule `FCCn1cc(-c2cccc(Br)c2)cn1` [Compound 4], the “Percent Control MIOV” value was 100%.

A further experiment has as its system Southern Corn Rootworm (Diabrotica undecimpuncatat). The experiment is described as follows: Southern corn rootworm test (CR). The experiment is classed as in vivo. Particulars: 100 ppm test solution, corn seedlings on filter paper; second instar larvae; after five days; corrected by Abbott's formula. As to the method: Stock solutions of each of the compounds were prepared at 1000 ppm by dissolving 0.08 gram of each compound to be tested in 8 mL of acetone and adding 72 mL of distilled water plus 3 drops of ethoxylated sorbitan monolaurate, a wetting agent. […] For each example that follows, these stock solutions were used and the specified dilutions made. All the tests discussed below, which involved treatment with compounds of this invention, were always repeated with controls to permit a comparison upon which the percent control was calculated. One thousand ppm of each stock solution of Example 2 was diluted to 100 ppm (the “test solution”). For each compound, 2.5 mL of each test solution was pipetted onto a filter paper (Whatman #3) at the bottom of a 100 mm petri dish. Two corn seedlings were soaked in the 100 ppm solution for one hour and transferred to the petri dish containing the same test solution. After 24 hours, each dish was loaded with 5 second instar larvae of Southern Corn Rootworm (Diabrotica undecimpuncatat). After five days, the number of live larvae was noted and the percent control, corrected by Abbott's formula, was calculated.
Consider `FCCC1(c2ccccc2)C=NNC1` (stereo not drawn) [Compound 1, 4-(2-fluoroethyl)-4-phenyl-1H-pyrazole], for which the “Percent Control CR” value is listed as 0%.

Turning to `FCCn1cc(-c2ccc(OC(F)(F)F)cc2)cn1` [Compound 7], the “Percent Control CR” value stood at 100%.

With `FCCn1cc(-c2ccc(C(F)(F)F)cc2)cn1` [Compound 3], the “Percent Control CR” value is on record as 100%.

As to `FCCn1cc(-c2cccc(C(F)(F)F)c2)cn1` [Compound 6], the “Percent Control CR” value was 100%.

For the molecule `FCCn1cc(-c2ccc(Cl)cc2)cn1` [Compound 2], the “Percent Control CR” value came out at 100%.

For the molecule `FCCn1cc(-c2ccc(Cl)c(Cl)c2)cn1` [Compound 5], the “Percent Control CR” value was determined as 63%.

Consider `FCCn1cc(-c2cccc(Br)c2)cn1` [Compound 4], for which the “Percent Control CR” value amounted to 0%.
